Test results reported in US10357494B2, “Combination therapy comprising varlitinib and an anticancer agent” (ASLAN Pharmaceuticals PTE LTD, priority 2015, dated 2019).

How the values were obtained:
Format in all cases: in vivo, human
[1] = test system: gastric cancer; experiment: Treatment of gastric cancer patients with Varlitinib 400 mg bi-daily and cisplatin/capecitabine chemotherapy; details: for tolerability / dose limiting toxicity: 400 mg bi-daily with cisplatin and capecitabine; for dose limiting toxicity: first two treatment cycles
Protocol: Example 1 Treatment of Gastric Cancer with Valitinib 400 mg Bi-Daily Orally and Cisplatin/Capecitabine Combination Chemotherapy
person one with Her2 positive (3+) stage IV gastric cancer had progressive disease in the form of 2 target lesions following: • first line treatment with cisplatin and Xeloda® (capecitabine)—4 cycles, • second line treatment with the experimental drug TDM1 (an antibody drug conjugate comprising Herceptin®)—9 cycles, • third line treatment with experimental drug LJM716 (a Her3 monoclonal antibody) and Herceptin®.
After treatment cycle 4 with ASLAN001 400 mg bi-daily, cisplatin and capecitabine, see FIG. 1. […] The cisplatin and capecitabine regime was cisplatin 80 mg/m^2 IV infusion and capecitabine 1000 mg/m^2 orally twice daily for 14 days every 3 weeks.
person two with gastric cancer (4 target lesions) was given first line treatment of Valitinib 400 mg bi-daily, cisplatin and capecitabine. […] The cisplatin and capecitabine regime was cisplatin 80 mg/m^2 IV infusion and capecitabine 1000 mg/m^2 orally twice daily for 14 days every 3 weeks.

[2] = test system: stage IV cholangiocarcinoma; experiment: Treatment of cholangiocarcinoma patients with Varlitinib bi-daily and cisplatin/capecitabine chemotherapy; details: person
Protocol: Example 2 Treatment of Cholangiocarcinoma with Varlitinib 400 mg Bi-Daily Orally and Cisplatin/Capecitabine Combination Chemotherapy A person with stage IV cholangiocarcinoma (3 lesions) had progressive disease following treatment with: • radiotherapy, and • gemcitabine (Gemzar®) and cisplatin—6 months. […] The cisplatin and capecitabine regime was cisplatin 80 mg/m^2 IV infusion and capecitabine 1000 mg/m^2 orally twice daily for 14 days every 3 weeks. Example 3 Treatment of Cholangiocarcinoma with Varlitinib 500 mg Bi-Daily Orally and Cisplatin/Capecitabine Combination Chemotherapy A person with stage IV cholangiocarcinoma had progressive disease following treatment with radiotherapy and bi-weekly 5-FU. […] The cisplatin and capecitabine regime was cisplatin 80 mg/m^2 IV infusion and capecitabine 1000 mg/m^2 orally twice daily for 14 days every 3 weeks.

[3] = test system: stage IV sigmoid colorectal cancer; experiment: Treatment of stage IV sigmoid colorectal cancer patient with Varlitinib 300 mg BID and oxaliplatin/capecitabine; details: person, stage IV sigmoid colorectal cancer with metastasis, 300 mg bi-daily
Protocol: Example 4 Treatment of Stage IV Sigmoid Coloreactal Cancer with Varlitinib 300 mg BID Oxaliplatin/Capecitabine
A person with stage IV sigmoid colorectal cancer with metastasis to liver, lungs and lymph node.
The prior treatments included: • Anterior resection with right hemi-hepatetomy and cholecystecomy • XELOX (PD), XELIRI (PR), Irrinotecan & Cetuximab (SD) • Xeloda and Avastin (SD), Bayer PTEFb-CDK9 inhibitor (PD)
The treatment per 3 weeks cycle was 300 mg ASLAN001 orally bi-daily, oxaliplatin 130 mg/m^2 IV infusion (Day 1) and capecitabine 850 mg/m^2 (Day 1-14) until Cycle 6, then from Cycle 7+ onwards, Varlitinib 300 mg b-daily as monotherapy per 4 week cycle.

[4] = test system: stage IV Cholangiocarcinoma and metastatic lymphadenopathy; experiment: Treatment of stage IV cholangiocarcinoma and metastatic lymphadenopathy patient with Varlitinib and cisplatin/5FU; details: person, first line, 300 mg BID Varlitinib combined with Cis/5-FU
Protocol: Example 5 Treatment of Stage IV Cholangiocarcinoma and Metastatic Lymphadenopathy with Varlitinib 400 mg Bi-Daily Orally and Cisplatin/5FU Combination Chemotherapy A person with stage IV Cholangiocarcinoma and metastatic lymphadenopathy diagnosed in January 2016, no prior surgery or treatment was give first line treatment of 300 mg BID Varlitinib combined with Cis/5-FU, 28-day cycle.

[5] = test system: intrahepatic bile duct cholangiocarcinoma; experiment: Treatment of intrahepatic bile duct cholangiocarcinoma patient with Varlitinib and FOLFOX; details: person, progressive on gemcitabine and cisplatin; 9 cycles Varlitinib 400 mg reduced to 300 mg BID and FOLFOX, then 7 cycles monotherapy
Protocol: Example 6 Treatment of the Intrahepatic Bile Duct Cholangiocarcinoma with 300 mg Valitinib and FOLFOX A person diagnosed in 2013 with intrahepatic bile duct cholangiocarcinoma, had received surgery in the form of left hemihepatectomy in 15 Jul. 2013. Prior therapies were gemcitabine and cisplatin 14 Aug. 2013 with last dose 8 Jan. 2014 and repeated between 13 May 2015 and 1 Jul. 2015. With this treatment the status was progressive disease. The patient was give 9 cycles combination Varlitinib 400 mg reduced to 300 mg BID and FOLFOX. This was followed with 7 cycles of Valitinib monotherapy.

[6] = test system: bladder cancer; experiment: Treatment of bladder cancer patient with 300 mg Valitinib and FOLFOX; details: person
Protocol: Example 7 Treatment of the Bladder Cancer with 300 mg Valitinib and FOLFOX A person was diagnosed with bladder cancer 2014. They received radical cystoprostatetomy and prior therapy with Cisplatin and radiotherapy (pelvis) on 20 Feb. 2014; gemcitabline and cisplatin on 10 Apr. 2015 with last dose on 8 May 2015. The patient received 9 cycles of 300 mg Valitinib BID and FOLFOX and 5 cycles of Varlitinib 300 mg monotherapy. The Valitinib in the combination therapy interruption from 21 to 27 Sep. 2015; 21 Oct. to 23 Oct.

[7] = test system: tumour; experiment: Clinical data summary as of June 2016, Varlitinib combination arms
Text: As of June 2016 the following clinical data summary: […]

[8] = test system: gastric tumours co-expressing EGFR and HER2 or HER2 amplified; experiment: Phase I monotherapy trial in gastric cancer patients, tumour biopsies analysed by immunohistochemistry; details: monotherapy 500 mg orally BID for 28 days, 23 patients; biopsies before and after treatment
Protocol: (R)—N4-[3-Chloro-4-(thiazol-2-ylmethoxy)-phenyl]-N6-(4-methyl-4,5,-dihydro-oxazol-2-yl)-quinazoline-4,6-diamine (Varlitinib Example 52 disclosed in WO2005/016346), is a small-molecule pan-HER inhibitor. It has been tested as a monotherapy in phase I clinical trials of gastric cancer patients. 23 patients, who had previously failed on one or more rounds of chemotherapy, and where eligible for trastuzumab, each received 500 mg of Varlitinib orally twice daily (BID) as monotherapy for 28 days. Tumour biopsies taken before and after treatment were analysed using immunohistochemistry.

[9] = 9 cycles 300 mg BID and FOLFOX, then 5 cycles 300 mg monotherapy

Question: With `C[C@@H]1COC(Nc2ccc3ncnc(Nc4ccc(OCc5nccs5)c(Cl)c4)c3c2)=N1` [Varlitinib, (R)—N4-[3-Chloro-4-(thiazol-2-ylmethoxy)-phenyl]-N6-(4-methyl-4,5,-dihydro-oxazol-2-yl)-quinazoline-4,6-diamine] as the molecule, how does the “response after treatment cycle 4” value ([1]; person one, Her2 positive (3+) stage IV gastric cancer, progressive after three prior lines, Varlitinib 400 mg bi-daily, cisplatin and capecitabine) read?
Answer: 29%

Question: What about the tolerability ([1]; person one, gastric cancer) of the same molecule?
Answer: well tolerated

Question: What about the dose limiting toxicity ([1]; person one, gastric cancer) of the same molecule?
Answer: No dose limiting toxicity was observed

Question: What about the disease status category ([1]; person one, stage IV gastric cancer, after cycle 4 of Varlitinib 400 mg bi-daily, cisplatin and capecitabine) of the same molecule?
Answer: stable disease

Question: What about the “response after cycle 4” value ([1]; person two, gastric cancer (4 target lesions), first line, 400 mg bi-daily, cisplatin and capecitabine) of the same molecule?
Answer: 41%

Question: What about the tolerability ([1]; person two, gastric cancer) of the same molecule?
Answer: well tolerated

Question: What about the disease status designation ([1]; person two, gastric cancer, due to development of a new bone lesion) of the same molecule?
Answer: progression disease

Question: And the dose limiting toxicity ([1]; person two, gastric cancer)?
Answer: No dose limiting toxicity was observed

Question: What about the tolerability ([2]; cholangiocarcinoma, 400 mg bi-daily with cisplatin and capecitabine) of the same molecule?
Answer: well tolerated

Question: And the dose limiting toxicity ([2]; cholangiocarcinoma, first two treatment cycles, 400 mg bi-daily with cisplatin and capecitabine)?
Answer: No dose limiting toxicity was observed

Question: And the “response after treatment cycle 2” value ([2]; stage IV cholangiocarcinoma, progressive after radiotherapy and 5-FU, Varlitinib orally 500 mg bi-daily, cisplatin and capecitabine)?
Answer: 4%

Question: What about the “response after 2 cycles (figure)” value [3] of the same molecule?
Answer: 335

Question: And the “response category after 2 cycles” value [3]?
Answer: partial response

Question: What about the current disease status [4] of the same molecule?
Answer: stable disease

Question: And the “tumor reduction at first response (C2)” value ([4]; 28-day cycle, 5 Mar. 2016)?
Answer: 16%

Question: And the “tumor reduction at last response (C4)” value ([4]; 28-day cycle, 17 May 2016)?
Answer: 13%

Question: And the patient status [5]?
Answer: partial response

Question: What about the “adverse event leading to treatment interruption” value ([6]; 300 mg BID and FOLFOX combination therapy) of the same molecule?
Answer: G2 weight loss

Question: And the “best % tumour change” value [6, 9]?
Answer: −4%

Question: What about the patient status [6, 9] of the same molecule?
Answer: stable disease

Question: What about the “Best response (% change)” value ([7]; Combo with cis/5-FU, 300 mg Varlitinib, 6 patients) of the same molecule?
Answer: −21%

Question: What about the “Best response (% change)” value ([7]; Combo with cis/5-FU, 400 mg Varlitinib, 7 patients) of the same molecule?
Answer: −47%

Question: And the “Best response (% change)” value ([7]; Combo with cis/cap, 400 mg Varlitinib, 6 patients)?
Answer: −87%

Question: What about the “Best response (% change)” value ([7]; Combo with cis/cap, 500 mg Varlitinib, 4 patients) of the same molecule?
Answer: −4%

Question: And the “signs of clinical activity: cell survival and proliferation” value [8]?
Answer: reduction in cell survival and cell proliferation

Question: What about the “signs of clinical activity: signalling pathways” value [8] of the same molecule?
Answer: downregulation of signalling pathways responsible for cell proliferation
